Results reported in patent US20090270407A1, “FUNGICIDAL ISOXAZOLIDINES” (E. I. DU PONT DE NEMOURS AND COMPANY, priority 2008, published 2009).
Where two headings read alike, the source gives them in different places. Marks after values point to notes of the source that are not given here.

Key:
Alternaria solani = assay: Test F: tomato early blight, preventive spray on tomato seedlings, visual disease rating; settings: 100 = 100 % disease control, 0 = no disease control relative to controls
Septoria nodorum = assay: Test C: wheat glume blotch, preventive spray on wheat seedlings, visual disease rating; settings: 100 = 100 % disease control, 0 = no disease control relative to controls
Plasmopara viticola = assay: Test I: grape downy mildew, spray on grape seedlings after inoculation, visual disease rating; settings: 100 = 100 % disease control, 0 = no disease control relative to controls
Description: (§1) General protocol for preparing test suspensions for Tests A-I: The test compounds were first dissolved in acetone in an amount equal to 3% of the final volume and then suspended at the desired concentration (in ppm) in acetone and purified water (50/50 mix) containing 250 ppm of the surfactant Trem® 014 (polyhydric alcohol esters). The resulting test suspensions were then used in Tests A-I. Spraying a 200 ppm test suspension to the point of run-off on the test plants was the equivalent of a rate of 500 g/ha. (An asterisk “*” next to the rating value indicates a 40 ppm test suspension.)
Grape seedlings were inoculated with a spore suspension of Plasmopara viticola (the causal agent of grape downy mildew) and incubated in a saturated atmosphere at 20° C. for 24 h. After a short drying period, the test suspension was sprayed to the point of run-off on the grape seedlings and then moved to a growth chamber at 20° C. for 6 days, after which time the test units were placed back into a saturated atmosphere at 20° C. for 24 h. Upon removal, visual disease ratings were made.
(§2) All results are for 200 ppm except where followed by “*” which indicates 40 ppm.

[1] = tested on: Erysiphe graminis f. sp. tritici; assay: Test A: wheat powdery mildew, preventive spray on wheat seedlings, visual disease rating; settings: 100 = 100 % disease control, 0 = no disease control relative to controls
Description: as §1
The test suspension was sprayed to the point of run-off on wheat seedlings. The following day the seedlings were inoculated with a spore dust of Erysiphe graminis f. sp. tritici (the causal agent of wheat powdery mildew) and incubated in a growth chamber at 20° C. for 8 days, after which time visual disease ratings were made.

Botrytis cinerea = assay: Test E: tomato Botrytis, preventive spray on tomato seedlings, visual disease rating; settings: 100 = 100 % disease control, 0 = no disease control relative to controls
Description: General protocol for preparing test suspensions for Tests A-I: The test compounds were first dissolved in acetone in an amount equal to 3% of the final volume and then suspended at the desired concentration (in ppm) in acetone and purified water (50/50 mix) containing 250 ppm of the surfactant Trem® 014 (polyhydric alcohol esters). The resulting test suspensions were then used in Tests A-I. Spraying a 200 ppm test suspension to the point of run-off on the test plants was the equivalent of a rate of 500 g/ha.
The test suspension was sprayed to the point of run-off on tomato seedlings. The following day the seedlings were inoculated with a spore suspension of Botrytis cinerea (the causal agent of tomato Botrytis) and incubated in saturated atmosphere at 20° C. for 48 h, and then moved to a growth chamber at 24° C. for 3 additional days, after which time visual disease ratings were made.
as §2

Septoria tritici = assay: Test D: wheat leaf blotch, preventive spray on wheat seedlings, visual disease rating; assay type: in vivo; settings: 100 = 100 % disease control, 0 = no disease control relative to controls
Description: A dash (−) indicates no test results.

Rhizoctonia oryzae = assay: Test G: turf brown patch, preventive spray on creeping bent grass seedlings, visual disease rating; settings: 100 = 100 % disease control, 0 = no disease control relative to controls
Description: The test suspension was sprayed to the point of run-off on creeping bent grass seedlings. The following day the seedlings were inoculated with a spore suspension of Rhizoctonia oryzae (the causal agent of turf brown patch) and incubated in a saturated atmosphere at 27° C. for 48 h, and then moved to a growth chamber at 27° C. for 3 days, after which time visual disease ratings were made.
A dash (−) indicates no test results. All results are for 200 ppm except where followed by “*” which indicates 40 ppm.

Phytophthora infestans = assay type: in vivo; settings: 100 = 100 % disease control, 0 = no disease control relative to controls
[2] = tested on: Puccinia recondita f. sp. tritici; assay: Test B: wheat leaf rust, preventive spray on wheat seedlings, visual disease rating; settings: 100 = 100 % disease control, 0 = no disease control relative to controls

SMILES	Test F disease control rating (Alternaria solani; 200 ppm) [%]	Test C disease control rating (Septoria nodorum; 200 ppm) [%]	Test I disease control rating (Plasmopara viticola; 200 ppm) [%]	Test A disease control rating ([1]; 200 ppm) [%]	Test E disease control rating (Botrytis cinerea; 200 ppm) [%]	Test D disease control rating (Septoria tritici; 200 ppm) [%]	Test G disease control rating (Rhizoctonia oryzae; 200 ppm) [%]	Test H disease control rating (Phytophthora infestans; 200 ppm) [%]	Test B disease control rating ([2]; 200 ppm) [%]	Test F disease control rating (Alternaria solani; 40 ppm (marked *))	Test C disease control rating (Septoria nodorum; 40 ppm (marked *))	Test I disease control rating (Plasmopara viticola; 40 ppm (marked *))	Test A disease control rating ([1]; 40 ppm (marked *))	Test E disease control rating (Botrytis cinerea; 40 ppm (marked *))	Test D disease control rating (Septoria tritici; 40 ppm (marked *))	Test G disease control rating (Rhizoctonia oryzae; 40 ppm (marked *))	Test H disease control rating (Phytophthora infestans; 40 ppm (marked *))	Test B disease control rating ([2]; 40 ppm (marked *))	melting point [°C]
CN1OC(C)(c2cccnc2)CC1c1ccc(Oc2ccc(F)cc2)cc1 (racemic) [Compound 20]	0	78	0	91	0	92	0	0	92	–	–	–	–	–	–	–	–	–	–
CN1OC(c2cccnc2)(C(F)(F)F)CC1c1ccc(-c2ccccc2)cc1 (racemic) [Compound 23]	4	97	0	99	0	98	0	0	0	–	–	–	–	–	–	–	–	–	–
CN1OC(c2cccnc2)(C(F)(F)F)CC1c1ccc(-c2ccccc2)cc1 (racemic) [Compound 24]	0	0	0	99	0	100	0	0	45	–	–	–	–	–	–	–	–	–	–
Cc1ccc(-c2ccc(C3CC(c4cccnc4)(C(F)(F)F)ON3C)cc2)cc1 (racemic) [Compound 25]	–	–	–	–	–	–	–	–	–	0* %	0* %	0* %	100* %	71* %	86* %	0* %	0* %	0* %	–
Cc1ccc(-c2ccc(C3CC(c4cccnc4)(C(F)(F)F)ON3C)cc2)cc1 (racemic) [Compound 26]	–	–	–	–	–	–	–	–	–	0* %	0* %	0* %	96* %	0* %	75* %	0* %	0* %	0* %	–
CN1OC(c2cccnc2)(C(F)(F)F)CC1c1ccc(Br)cc1 (racemic) [Compound 29]	–	–	–	–	–	–	–	–	–	83* %	67* %	0* %	98* %	0* %	76* %	0* %	0* %	0* %	–
CN1OC(c2cccnc2)(C(F)(F)F)CC1c1ccc(Br)cc1 (racemic) [Compound 30]	0	92	58	100	0	83	0	0	89	–	–	–	–	–	–	–	–	–	–
Cc1cccc(-c2ccc(C3CC(c4cccnc4)(C(F)(F)F)ON3C)cc2)c1C (racemic) [Compound 31]	–	–	0	–	–	–	–	–	0	0* %	0* %	–	98* %	0* %	50* %	0* %	0* %	–	–
Cc1cccc(-c2ccc(C3CC(c4cccnc4)(C(F)(F)F)ON3C)cc2)c1C (racemic) [Compound 32]	0	0	9	97	0	85	0	0	0	–	–	–	–	–	–	–	–	–	–
CN1O[C@](C)(c2cnccn2)C[C@@H]1c1ccc(-c2ccccc2)cc1 (relative stereo) [Compound 21, rel-2-[(3R,5S)-3-[1,1′-biphenyl]-4-yl-2,5-dimethyl-5-isoxazolidinyl]pyrazine]	–	–	–	–	–	–	–	–	–	62* %	0* %	0* %	97* %	0* %	95* %	0* %	0* %	0* %	–
CN1O[C@@](C)(c2cnccn2)C[C@@H]1c1ccc(-c2ccccc2)cc1 (relative stereo) [Compound 22]	–	–	–	–	–	–	–	–	–	0* %	0* %	0* %	86* %	0* %	97* %	0* %	0* %	0* %	–
CN1O[C@@](c2cccnc2)(C(F)(F)F)C[C@@H]1c1ccc(I)cc1 (relative stereo) [Compound 27, rel-3-[(3R,5S)-3-(4-iodophenyl)-2-methyl-5-(trifluoromethyl)-5-isoxazolidinyl]pyridine]	–	–	–	–	–	–	–	–	–	100* %	100* %	0* %	100* %	0* %	95* %	0* %	0* %	0* %	80 to 83
CN1O[C@](c2cccnc2)(C(F)(F)F)C[C@@H]1c1ccc(I)cc1 (relative stereo) [Compound 28, rel-3-[(3R,5R)-3-(4-iodophenyl)-2-methyl-5-(trifluoromethyl)-5-isoxazolidinyl]pyridine]	–	–	–	–	–	–	–	–	–	0* %	33* %	0* %	99* %	0* %	88* %	0* %	0* %	0* %	108 to 110
CN1O[C@@](C)(c2cccnc2)C[C@@H]1c1ccc(-n2ccc(C(F)(F)F)n2)cc1 (relative stereo) [Compound 36, rel-3-[(3R,5R)-2,5-dimethyl-3-[4-[3-(trifluoromethyl)-1H-pyrazol-1-yl]phenyl]-5-isoxazolidinyl]pyridine]	–	–	–	–	–	–	–	–	–	23* %	0* %	0* %	79* %	22* %	73* %	7* %	0* %	0* %	–
CN1O[C@](C)(c2cccnc2)C[C@@H]1c1ccc(-n2cc(Br)cn2)cc1 (relative stereo) [Compound 37, rel-3-[(3R,5S)-3-[4-(4-bromo-1H-pyrazol-1-yl)phenyl]-2,5-dimethyl-5-isoxazolidinyl]pyridine]	–	–	–	–	94	–	–	–	–	93* %	99* %	0* %	95* %	–	99* %	0* %	0* %	74* %	–
CN1OC(C)(c2cccnc2)CC1c1ccc(-n2cc(Br)cn2)cc1 (centres unmarked) [Compound 38]	–	–	–	–	–	–	–	–	–	42* %	0* %	0* %	0* %	0* %	77* %	0* %	0* %	0* %	–
